According to PubChem BioAssay AID248 (DTP/NCI, 2004):
Inconclusive results and toxic doses are left out. Rule as the data show it: active = T/C of 150% or more; inactive = T/C below 125%.

System: L1210 leukemia ip in BDF1 mice, survival T/C
Test: NCI In Vivo Anticancer Drug Screen. Data for tumor model L1210 Leukemia (intraperitoneal) in B6D2F1 (BDF1) mice
Settings: endpoint: mean survival time, higher = longer survival
In short: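 Each compound was tested against a transplantable tumor grown in mice. The endpoint was survival, with treated animals benchmarked against vehicle controls as a simple ratio.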

[1] = dose: 25.0 mg/kg/injection, schedule: Q04DX002 (ip), vehicle: Klucel (hydroxypropylcellulose) (HPC)
[2] = dose: 50.0 mg/kg/injection, schedule: Q04DX002 (ip), vehicle: Klucel (hydroxypropylcellulose) (HPC)
[3] = dose: 100.0 mg/kg/injection, schedule: Q01DX009 (ip), vehicle: Klucel (hydroxypropylcellulose) (HPC)
[4] = dose: 200.0 mg/kg/injection, schedule: Q01DX009 (ip), vehicle: Klucel (hydroxypropylcellulose) (HPC)
[5] = dose: 400.0 mg/kg/injection, schedule: Q01DX009 (ip), vehicle: Klucel (hydroxypropylcellulose) (HPC)
[6] = dose: 100.0 mg/kg/injection, schedule: Q04DX003 (ip), vehicle: saline with Tween-80
[7] = dose: 200.0 mg/kg/injection, schedule: Q04DX003 (ip), vehicle: saline with Tween-80
[8] = dose: 400.0 mg/kg/injection, schedule: Q04DX003 (ip), vehicle: saline with Tween-80
[9] = dose: 100.0 mg/kg/injection, schedule: Q04DX003 (ip), vehicle: saline
[10] = dose: 200.0 mg/kg/injection, schedule: Q04DX003 (ip), vehicle: saline
[11] = dose: 400.0 mg/kg/injection, schedule: Q04DX003 (ip), vehicle: saline
[12] = dose: 50.0 mg/kg/injection, schedule: Q01DX009 (ip), vehicle: saline with Tween-80
[13] = dose: 100.0 mg/kg/injection, schedule: Q01DX009 (ip), vehicle: saline with Tween-80
[14] = dose: 100.0 mg/kg/injection, schedule: Q04DX003 (ip), vehicle: Klucel (hydroxypropylcellulose) (HPC)
[15] = dose: 200.0 mg/kg/injection, schedule: Q04DX003 (ip), vehicle: Klucel (hydroxypropylcellulose) (HPC)
[16] = dose: 400.0 mg/kg/injection, schedule: Q04DX003 (ip), vehicle: Klucel (hydroxypropylcellulose) (HPC)
[17] = dose: 200.0 mg/kg/injection, schedule: Q01DX009 (ip), vehicle: saline with Tween-80
[18] = dose: 400.0 mg/kg/injection, schedule: Q01DX009 (ip), vehicle: saline with Tween-80
[19] = dose: 75.0 mg/kg/injection, schedule: Q01DX001 (ip), vehicle: saline
[20] = dose: 100.0 mg/kg/injection, schedule: Q04DX002 (ip), vehicle: saline with Tween-80
[21] = dose: 200.0 mg/kg/injection, schedule: Q04DX002 (ip), vehicle: saline with Tween-80
[22] = dose: 400.0 mg/kg/injection, schedule: Q04DX002 (ip), vehicle: saline with Tween-80

Measured: T/C

CCCCC(CCN1CCCC1)(CNC(=O)CN(CC)CC)c1cccc2ccccc12 (centres undefined)
inactive: dose: 25.0 mg/kg/injection, schedule: Q01DX009 (ip), vehicle: saline 94 % of control | [1] 103 % of control | dose: 50.0 mg/kg/injection, schedule: Q01DX009 (ip), vehicle: saline 102 % of control | [2] 100 % of control | dose: 100.0 mg/kg/injection, schedule: Q04DX002 (ip), vehicle: Klucel (hydroxypropylcellulose) (HPC) 107 % of control

CC(C)(C)OC(=O)COc1cccc([N+](=O)[O-])c1
inactive: [3] 114 % of control | [4] 102 % of control | [5] 100 % of control

C=CCOP(=O)(OCC=C)c1ccccc1
inactive: dose: 55.0 mg/kg/injection, schedule: Q01DX Z (ip), vehicle: methylcellulose (MC) 89 % of control | dose: 83.0 mg/kg/injection, schedule: Q01DX Z (ip), vehicle: methylcellulose (MC) 98 % of control | dose: 125.0 mg/kg/injection, schedule: Q01DX Z (ip), vehicle: methylcellulose (MC) 93 % of control

CC1(C)OC2OC(COC(=O)c3ccccc3)C(OC(=O)Nc3ccccc3)C2O1 (centres undefined)
inactive: [6] 93 % of control | [7] 98 % of control | [8] 97 % of control

O=S(=O)(O)CCC(CO)(CO)CO
inactive: dose: 100.0 mg/kg/injection, schedule: Q01DX009 (ip), vehicle: saline 98 % of control | [9] 101 % of control | dose: 200.0 mg/kg/injection, schedule: Q01DX009 (ip), vehicle: saline 102 % of control | [10] 101 % of control | dose: 400.0 mg/kg/injection, schedule: Q01DX009 (ip), vehicle: saline 101 % of control | [11] 97 % of control

Cc1ccccc1-c1nc2cc(Cl)ccc2c(=O)o1
inactive: dose: 25.0 mg/kg/injection, schedule: Q01DX009 (ip), vehicle: saline with Tween-80 98 % of control | [12] 88 % of control | [13] 96 % of control | [6] 100 % of control | [7] 102 % of control | [8] 108 % of control

Cc1ccc(S(=O)(=O)/N=S(\Cc2ccccc2)c2ccccc2)cc1 (centres undefined)
inactive: [3] 92 % of control | [14] 93 % of control | [4] 89 % of control | [15] 97 % of control | [5] 92 % of control | [16] 98 % of control

O=C(COc1ccc(Cl)c(Cl)c1)Nc1ccc[n+](CC(=O)Nc2ccc(S(=O)(=O)F)cc2)c1
inactive: [13] 87 % of control | [17] 87 % of control | [18] 89 % of control

[O-][n+]1ccc(-c2ccccc2)cc1
inactive: dose: 100.0 mg/kg/injection, schedule: Q04DX002 (ip), vehicle: saline 107 % of control | dose: 200.0 mg/kg/injection, schedule: Q04DX002 (ip), vehicle: saline 96 % of control

OC(Br)C1C(c2ccccc2)N1C1CCCCC1 (centres undefined)
inactive: [14] 98 % of control | [15] 91 % of control | [16] 93 % of control

O=C(Nc1ccccc1O)c1ccc(Cl)c(Cl)c1
inactive: [3] 100 % of control | [4] 107 % of control | [5] 102 % of control

CC(=O)C12OC(C)(C)OC1CC1C3CCC4=CC(=O)C=CC4(C)C3(F)C(O)CC12C (centres undefined)
inactive: dose: 12.5 mg/kg/injection, schedule: Q04DX002 (ip), vehicle: Klucel (hydroxypropylcellulose) (HPC) 104 % of control | [1] 107 % of control | [2] 107 % of control

CCCCCCCCCCCC[Si](Cl)(Cl)Cl
inactive: [19] 105 % of control

Nc1ncnc(N)c1NC(=O)c1cccc(C(=O)c2ccccc2)c1
inactive: [9] 101 % of control | [10] 100 % of control | [11] 96 % of control

CC(C)(c1ccc(O)cc1)c1ccc(O)cc1
inactive: [6] 96 % of control | [7] 87 % of control | [8] 91 % of control

O=C(O)C1CC=CCCC1 (centres undefined)
inactive: [3] 96 % of control | [14] 101 % of control | [4] 96 % of control | [15] 101 % of control | [5] 93 % of control | [16] 98 % of control

CCC(CCC(C)C1CCC2C3CC=C4CC(OC(=O)Nc5ccc(Cl)cc5)CCC4(C)C3CCC12C)C(C)C (centres undefined)
inactive: [20] 91 % of control | [21] 97 % of control | [22] 94 % of control

CSc1n[nH]c(N=[N+]=[N-])n1
inactive: [20] 104 % of control | [21] 115 % of control | [22] 104 % of control

O=c1[nH]nc(-c2ccc(Cl)c(Cl)c2)s1
inactive: [19] 95 % of control | dose: 75.0 mg/kg/injection, schedule: Q04DX003 (ip), vehicle: saline 95 % of control | dose: 150.0 mg/kg/injection, schedule: Q01DX001 (ip), vehicle: saline 92 % of control | dose: 150.0 mg/kg/injection, schedule: Q04DX003 (ip), vehicle: saline 95 % of control | dose: 300.0 mg/kg/injection, schedule: Q01DX001 (ip), vehicle: saline 92 % of control | dose: 300.0 mg/kg/injection, schedule: Q04DX003 (ip), vehicle: saline 96 % of control

Cc1ccc(C(=O)/C=C\c2ccccc2)cc1
inactive: [13] 110 % of control | [6] 103 % of control | [17] 97 % of control | [7] 98 % of control | [18] 97 % of control | [8] 92 % of control

CCNc1cc(Cl)nc(N)n1
inactive: [13] 92 % of control | [6] 105 % of control | [17] 101 % of control | [7] 98 % of control | [18] 104 % of control | [8] 104 % of control

COc1ccc(OC)c(CCO)c1
inactive: dose: 50.0 mg/kg/injection, schedule: Q01DX001 (ip), vehicle: carboxymethylcellulose (CMC) 93 % of control | dose: 100.0 mg/kg/injection, schedule: Q01DX001 (ip), vehicle: carboxymethylcellulose (CMC) 98 % of control | dose: 200.0 mg/kg/injection, schedule: Q01DX001 (ip), vehicle: carboxymethylcellulose (CMC) 91 % of control | dose: 400.0 mg/kg/injection, schedule: Q01DX001 (ip), vehicle: carboxymethylcellulose (CMC) 93 % of control

C=C1C(=O)OC2C1C(OC(=O)/C(=C/C)COC(C)=O)CC1(CO1)C1C(OC(=O)/C(=C/C)CO)C3OC3(C)C21 (centres undefined)
inactive: dose: 3.12 mg/kg/injection, schedule: Q01DX009 (ip), vehicle: alcohol 110 % of control | dose: 6.25 mg/kg/injection, schedule: Q01DX009 (ip), vehicle: alcohol 104 % of control | dose: 12.5 mg/kg/injection, schedule: Q01DX009 (ip), vehicle: alcohol 96 % of control

CCCCCCCCCC1OOC1(C)C (centres undefined)
inactive: dose: 50.0 mg/kg/injection, schedule: Q01DX001 (ip), vehicle: water 97 % of control | dose: 100.0 mg/kg/injection, schedule: Q01DX001 (ip), vehicle: water 93 % of control | dose: 200.0 mg/kg/injection, schedule: Q01DX001 (ip), vehicle: water 93 % of control

COc1c(C)c(C)c(OC(C)=O)c(C)c1Br
inactive: [6] 96 % of control | [7] 89 % of control | [8] 91 % of control

O=C(Sc1ccc2ccccc2c1CN1CCCCC1)c1ccc([N+](=O)[O-])cc1
inactive: dose: 200.0 mg/kg/injection, schedule: Q01DX Z (ip), vehicle: methylcellulose (MC) 96 % of control | dose: 225.0 mg/kg/injection, schedule: Q01DX Z (ip), vehicle: methylcellulose (MC) 94 % of control | dose: 450.0 mg/kg/injection, schedule: Q01DX Z (ip), vehicle: methylcellulose (MC) 89 % of control | dose: 675.0 mg/kg/injection, schedule: Q01DX Z (ip), vehicle: methylcellulose (MC) 96 % of control

CCC1COC(Nc2cccc3c2CCCC3)=N1 (centres undefined)
inactive: dose: 50.0 mg/kg/injection, schedule: Q04DX003 (ip), vehicle: saline with Tween-80 92 % of control | [6] 92 % of control | [7] 92 % of control

O=C1CCc2c(Cl)sc(Cl)c21
inactive: [12] 91 % of control | [13] 88 % of control | [17] 96 % of control

Cn1cnc(N)c1C(=N)[Se]
inactive: dose: 6.25 mg/kg/injection, schedule: Q01DX009 (ip), vehicle: water 86 % of control | dose: 12.5 mg/kg/injection, schedule: Q04DX003 (ip), vehicle: water 108 % of control | dose: 25.0 mg/kg/injection, schedule: Q04DX003 (ip), vehicle: water 95 % of control
